In brackets after ≈: the same amount, converted by molar mass.

One data set is described as follows: in vitro. Particulars: human, Caco-2.
Data set [1] is described as follows: Permeability from apical to basolateral side of MDCK cells. It counts as ADME, cell-based, Canis lupus familiaris. Particulars: dog, read-out: permeability.
Data set [2] is described as follows: Permeability from basolateral to apical side of MDCK cells. It is filed as ADME, cell-based, Canis lupus familiaris. Particulars: dog, read-out: permeability.
Data set [3] in a line: Solubility of the compound. It is filed as physicochemical.
Data set [4] in a line: Volume of distribution at steady state in Han Wistar rat at […], iv. It counts as ADME, organism-based. Set-up: dose 2.5 mg/kg, route intravenous. Particulars: in vivo, read-out: Vdss.
The nature of data set [5]: Oral bioavailability in Han Wistar rat at 10 mg/kg administered as solution in 40% PEG400 in saline. It is filed as ADME, organism-based. Particulars: in vivo.
Data set [6] is described as follows: Oral bioavailability in Han Wistar rat at 10 mg/kg administered as suspension in 0.5% methylcellulose. It is filed as ADME, organism-based. The conditions noted are these: in vivo.
The nature of data set [7]: Volume of distribution at steady state in Beagle dog at 0.5 mg/kg, iv. It counts as ADME, organism-based, Canis lupus familiaris. Also on record: dose 0.5 mg/kg, route intravenous. Particulars: in vivo, read-out: Vdss.
A short description of data set [8]: Oral bioavailability in Beagle dog at 0.5 mg/kg administered as solution in 40% PEG400 in saline. It is filed as ADME, organism-based, Canis lupus familiaris. The conditions noted are these: in vivo.
Data set [9] in a line: Oral bioavailability in Beagle dog at 0.5 mg/kg administered as suspension in 0.5% methylcellulose. It is filed as ADME, organism-based, Canis lupus familiaris. Particulars: in vivo.
Data set [10] is described as follows: Toxicity in human A2058 cells xenografted po dosed nu/nu athymic mouse. It is filed as organism-based. The conditions noted are these: in vivo. (A xenograft is tissue or cells of one species grown in another, often human tumour cells in immunodeficient mice.)

As for `Nc1nc2c(c(-c3c(Cl)cc(Cl)cc3OCCn3cccn3)n1)CN(C(=O)NCC(F)F)C2`, in “in vitro”, the Papp A→B came to 1.2 ×10⁻⁶ cm/s.

Consider `Nc1nc2c(c(-c3c(Cl)cc(Cl)cc3OCCn3cccn3)n1)CN(C(=O)NC1CC(F)(F)C1)C2`, for which the Papp A→B in the data set “in vitro” came to 1.5 ×10⁻⁶ cm/s.

For `Cc1cc(Cl)cc(OCCn2cc(F)cn2)c1-c1nc(N)nc2c1CN(C(=O)NCC(C)(F)F)C2`, the Papp A→B in data set [1] was found to be 2.4 ×10⁻⁶ cm/s. For the same compound, the Papp B→A in data set [2] stood at 11 ×10⁻⁶ cm/s. The solubility (as a rule, the concentration that dissolves in the medium under given conditions) in [3] was 200 µM (≈ 102 µg/mL). Further, the Vd in data set [4] worked out at 9.6 L/kg; in data set [7], 8 L/kg. Besides, the bioavailability (in general, the share of a dose that reaches the circulation, judged against a reference dose that is usually intravenous) amounted to 19% in data set [5], 15% in [6], 63% in [8] and 58% in data set [9].

Compound `Nc1nc2c(c(-c3c(Cl)cc(Cl)cc3OCCn3cccn3)n1)CN(C(=O)NC13CC(C1)C3)C2` registered a Papp A→B in “in vitro” of 5 ×10⁻⁶ cm/s.

In the case of `Nc1nc2c(c(-c3c(Cl)cc(Cl)cc3OCCn3cccn3)n1)CN(C(=O)NC1CCC1)C2`, the Papp A→B in the data set “in vitro” amounted to 4.7 ×10⁻⁶ cm/s.

For `Nc1nc2c(c(-c3c(Cl)cc(Cl)cc3OCCn3cccn3)n1)CN(C(=O)NC1CC1)C2`, the Papp A→B in “in vitro” came to 0.5 ×10⁻⁶ cm/s.

Consider `CO[C@H]1/C=C\C=C(/C)C(=O)NC2=CC(=O)C(NCCN(C)C)=C(C[C@@H](C)C[C@H](OC)[C@H](O)[C@@H](C)/C=C(\C)[C@@H]1OC(N)=O)C2=O` [ALVESPIMYCIN], for which, in data set [10], the MTD was found to be 10 mg/kg.

In the data set “in vitro”, `Nc1nc2c(c(-c3c(Cl)cc(Cl)cc3OCCn3cccn3)n1)CN(C(=O)NCC(F)(F)F)C2` displayed a Papp A→B of 0.96 ×10⁻⁶ cm/s.
